Values quoted from earlier work, collected in patent publication US7361766B2, “Bicyclic heterocycles as cannabinoid receptor modulators” (Bristol-Myers Squibb Company, priority 2005, dated 2008).
Read-outs that look alike come from different tables or passages of the source.

Key:
[1] = chronic administration for two weeks
CB-1 = conditions: multiple species including humans
[2] = human subjects, 16 week trial period

Compound | body weight [1] | body weight (CB-1) | food intake (CB-1) | body weight [2]
Cc1c(C(=O)NN2CCCCC2)nn(-c2ccc(Cl)cc2Cl)c1-c1ccc(I)cc1 [AM-251] | substantial body weight reduction |  |  | 
CCCCCc1cc(O)c2c(c1)OC(C)(C)[C@@H]1CCC(C)=C[C@@H]21 [Delta-9 THC, Delta-9-tetrahydrocannabinol] |  | weight gain | increased food intake | 
Cc1c(C(=O)NN2CCCCC2)nn(-c2ccc(Cl)cc2Cl)c1-c1ccc(Cl)cc1 [SR-141716] |  |  |  | dose-dependently reduced body weight
CCCCC/C=C\C/C=C\C/C=C\C/C=C\CCCC(=O)NCCO [anandamide] |  | weight gain | increased food intake | 
